Results: publication PMC3914891, “Pentacyclic Nitrofurans with In Vivo Efficacy and Activity against Nonreplicating Mycobacterium tuberculosis” (PLoS ONE, 2014)
Values after ≈ are worked out from the molar mass of the structure shown. Where two headings read alike, the source gives them in different places. Marks after values point to notes of the source that are not given here.

Experiments:
M. tuberculosis = assay: MIC determination, microbroth dilution, M. tuberculosis; type: cell-based, Mycobacterium tuberculosis
Vero cells [1] = conditions: cited from earlier work
Vero cells [2] = assay: In vitro cytotoxicity against Vero cells
[3] = mouse plasma; ref footnote g, values reported in reference (number not given); cited from earlier work
[4] = test system: M. tuberculosis strain H37Rv; assay: Checkerboard synergy assay; type: cell-based, Mycobacterium tuberculosis; conditions: for MIC: Mycobacterium tuberculosis, 168 h, read-out: MIC Alone
[5] = test system: M. bovis strain BCG Pasteur; type: cell-based
[6] = test system: hypoxic M. tuberculosis strain H37Rv; assay: NRP bacteria under hypoxia (rapid anaerobic dormancy model); type: cell-based, Mycobacterium tuberculosis
M. tuberculosis Erdman = conditions: mouse, in vivo, po, 25 mg/kg
[7] = test system: M. tuberculosis strain H37Rv (mid-log and nutrient-starved); assay: Nutrient starvation model of nonreplicating persisters; type: cell-based, Mycobacterium tuberculosis
[8] = test system: Enterococcus faecalis (ATCC 33186); assay: MIC, spectrum of activity: E.f.; type: cell-based; conditions: ATCC33186, read-out: Minimum Inhibitory Concentration, E.f.
[9] = test system: M. abscessus (ATCC 19977); assay: MIC, non-tuberculosis mycobacteria: M. abscessus; type: cell-based; conditions: Mycobacteroides abscessus, ATCC19977, 72 h, read-out: Minimum Inhibitory Concentration, M. abscessus
[10] = test system: Escherichia coli (ATCC 700926); assay: MIC, spectrum of activity: E.c.; type: cell-based; conditions: ATCC700926, read-out: Minimum Inhibitory Concentration, E.c.
M. kansasii (ATCC 12478) = assay: MIC, non-tuberculosis mycobacteria: M. kansasii; type: cell-based; conditions: Mycobacterium kansasii, ATCC12478, 168 h; broth dilution, visual inspection, 7 days; read-out: Minimum Inhibitory Concentration, M. kansasii
[11] = test system: Bacillus subtilis (ATCC 23857); assay: MIC, spectrum of activity: B.s.; type: cell-based; conditions: ATCC23857, read-out: Minimum Inhibitory Concentration, B.s.
[12] = test system: Staphylococcus aureus (ATCC 29213); assay: MIC, spectrum of activity: S.a.; type: cell-based; conditions: ATCC29213, read-out: Minimum Inhibitory Concentration, S.a
H37Rv-wt = assay: microbe, parasite or virus in culture; type: cell-based, M. tuberculosis; conditions: Mycobacterium tuberculosis
in vitro [13] = conditions: mouse, plasma
[14] = test system: Stenotrophomonas maltophilia (ATCC 13637); assay: MIC, spectrum of activity: S.m.; type: cell-based; conditions: ATCC13637, read-out: Minimum Inhibitory Concentration, S.m.
[15] = test system: Staphylococcus aureus (NRS70); assay: MIC, spectrum of activity: MRSA; type: cell-based; conditions: read-out: Minimum Inhibitory Concentration, MRSA
[16] = In vitro cytotoxicity against Vero cells; conditions: African green monkey, Vero cells (kidney epithelial cells, ATCC CCL-81)
[17] = test system: Burkholderia cepacia (ATCC 25416); assay: MIC, spectrum of activity: B.c.; type: cell-based; conditions: ATCC25416, read-out: Minimum Inhibitory Concentration, B.c.
[18] = test system: Bacillus anthracis sterne 34F2; assay: microbe, parasite or virus in culture; type: cell-based; conditions: STERNE34F2, read-out: Minimum Inhibitory Concentration, B.a.
in vitro [19] = conditions: mouse, microsomes
M. avium (ATCC 25291) = assay: MIC, non-tuberculosis mycobacteria: M. avium; type: cell-based; conditions: Mycobacterium avium, ATCC25291, 168 h; broth dilution, visual inspection, 7 days; read-out: Minimum Inhibitory Concentration, M. avium
M. fortuitum (ATCC 6841) = assay: MIC, non-tuberculosis mycobacteria: M. fortuitum; type: cell-based; conditions: Mycolicibacterium fortuitum, ATCC6841, 72 h; broth dilution, visual inspection, 3 days; read-out: Minimum Inhibitory Concentration, M. fortuitum
M. ulcerans (ATCC 35840) = assay: MIC by agar proportion method: M. ulcerans; type: cell-based; conditions: Mycobacterium ulcerans, ATCC35840, 672 h; agar proportion method, 4 weeks; read-out: Minimum Inhibitory Concentration, M. ulcerans
physchem = conditions: pH 7.4, aqueous buffer
[20] = test system: Streptococcus pyogenes (ATCC 700294); assay: MIC, spectrum of activity: S.py; type: cell-based; conditions: ATCC700294, read-out: Minimum Inhibitory Concentration, S. Py.
[21] = test system: Streptococcus pneumoniae (R6); assay: MIC, spectrum of activity: S.pn; type: cell-based; conditions: read-out: Minimum Inhibitory Concentration, S. Pn.
E. coli K12 ∆tolC = type: cell-based; conditions: E. coli K12 ∆tolC (efflux pump deficient)
M. tuberculosis H37Rv = assay: Minimum bactericidal concentration determination; type: cell-based, Mycobacterium tuberculosis

In the case of O=[N+]([O-])c1ccc(C2=NOC(c3ccc(N4CCOCC4)cc3)C2)o1 (centres unmarked) [Compound 2], the MIC (M. tuberculosis; Mycobacterium tuberculosis, 168 h, read-out: M. tb. MIC) is given as 0.006 µg/mL, the “Cytotoxicity IC50” value (Vero cells [1]) is given as 2.9 ^g µg/mL and the “Selective Index (Cytox/MIC)” value (Vero cells [2]) is given as 483. The “Plasma Protein binding” value [3] was 96.4 ^g % and the “Solubility (pH 7.4)” value was 9.9 µg/mL.

In the case of NNC(=O)c1ccncc1 [Isoniazid], the “FICI with 9a” value [4] is reported as 0.52–2.00, the “MIC in presence of 9a” value [4] is reported as 0.01 to 0.02 µg/mL and the “Type of Interaction” value [4] is reported as “Indifference (key: Synergy: synergy (FICI ≤0.5); Indifference: indifference (FICI >0.5–4.0); Antagonism: antagonism (FICI >4.0))”. The MIC ([4]; H37RV) was 0.02 µg/mL, the PAE [5] was 71.8 h and the “% Growth vs. Control” value [6] was 29.1–49.1%. The “Log10CFU (SEM), lungs” value (M. tuberculosis Erdman) was 4.60 (0.21) Log10CFU, the “Log10CFU (SEM), spleen” value (M. tuberculosis Erdman) was 2.61 (0.09) Log10CFU and the “fold less active against nutrient starved bacteria than against actively growing culture” value [7] was 7 fold. For the same compound, the “reduction in viability (killing) of actively growing culture” value [7] was greater than 95%.

For O=[N+]([O-])c1cn2c(n1)OC[C@@H](OCc1ccc(OC(F)(F)F)cc1)C2 [PA-824], the MIC [8] was greater than 200 µg/mL, the MIC [9] was greater than 200 µg/mL and the MIC [10] was greater than 200 µg/mL. The MIC (M. kansasii (ATCC 12478)) was 3.1 to 12.5 µg/mL (≈ 8.63 to 34.8 µM), the MIC [11] was 200 µg/mL (≈ 557 µM) and the “MIC in presence of 9a” value [4] was 0.01 to 0.02 µg/mL. The MIC ([4]; checkerboard, H37Rv, 7 days) was 0.2 to 0.8 µg/mL, the “fold decrease of MIC in the presence of 9a” value ([4]; checkerboard, H37Rv) was roughly 10 fold and the “Type of Interaction” value ([4]; interaction of the treatment with 9a) was “Synergy (synergy (FICI ≤0.5))”. It also gave an MIC [12] greater than 200 µg/mL, an MIC (H37Rv-wt) of 0.1 µg/mL (≈ 0.278 µM) and a fraction unbound (in vitro [13]) of 0.071. It also gave an MIC [14] greater than 200 µg/mL, an MIC [15] greater than 200 µg/mL and an MIC (M. tuberculosis; Mycobacterium tuberculosis, 168 h; read-out: M. tb. MIC) of 0.39 µg/mL. For the same compound, the MIC (M. tuberculosis; Mycobacterium tuberculosis; M. tuberculosis; […]; read-out: MIC) was greater than 1 µM, the “Selective Index (Cytox/MIC)” value (Vero cells [2]) was 178 and the IC50 [16] was 69.4 µg/mL (≈ 193 µM). The MIC [17] was greater than 200 µg/mL, the MIC [18] was greater than 200 µg/mL and the “% Growth vs. Control” value [6] was less than 0.1%. For the same compound, the “killing of hypoxic bacilli” value ([6]; 10 µg/mL, NRP-2 bacilli) was greater than 99.9%, the half-life (in vitro [19]) was 8.12 h and the MIC (M. avium (ATCC 25291)) was greater than 200 µg/mL. The MIC (M. fortuitum (ATCC 6841)) was greater than 200 µg/mL, the MIC (M. ulcerans (ATCC 35840)) was 3.1 to 25 µg/mL (≈ 8.63 to 69.6 µM) and the solubility (physchem) was 8.5 µg/mL (≈ 23.7 µM). The MIC [20] was greater than 200 µg/mL, the MIC [21] was greater than 200 µg/mL and the “Minimum Inhibitory Concentration, E.c. ΔtolC” value (E. coli K12 ∆tolC) was greater than 200 µg/mL. For the same compound, the MBC (M. tuberculosis H37Rv) was greater than 6 and the Classification (M. tuberculosis H37Rv; cidal or static from MBC versus MIC) was “Static (static (MBC/MIC >4))”.
